How the values were obtained:
Format in all cases: in vivo
Setaria viridis = assay: Herbicidal pre-emergence action, SETVI; settings: 1280 g/ha, visual grading after ca. 3 weeks vs untreated controls
Text: (§1) Seeds of mono- and dicotyledonous weed plants were sown in plastic pots (double sowings with one species of mono- and one species of dicotyledonous weed plants per pot), in sandy loam, and covered with soil. The compounds according to the invention, formulated in the form of wettable powders (WP) or as emulsifiable concentrates (EC), were applied to the surface of the covering soil as an aqueous suspension or as an emulsion, with the addition of 0.5% of an additive, at an application rate of 600 litres of water per hectare (converted). Following treatment, the pots were placed in a greenhouse and kept under optimum growth conditions for the test plants. The visual grading of the damage to the test plants is carried out after ca. 3 weeks in comparison to untreated controls (herbicidal effect in percent (%): 100% effect=plants have died, 0% effect=as control plants).

Poa annua [1] = assay: Herbicidal post-emergence action, POAAN; settings: assessed visually after ca. 3 weeks vs untreated controls
Text: (§2) Seeds of mono- and dicotyledonous weed plants were sown in plastic pots (double sowings with one species of mono- and one species of dicotyledonous weed plants per pot), in sandy loam, covered with soil and grown under controlled growth conditions. 2 to 3 weeks after sowing, the test plants were sprayed in the single-leaf stage. The compounds according to the invention, formulated in the form of wettable powders (WP) or as emulsifiable concentrates (EC), were sprayed onto the green plant parts as an aqueous suspension or as an emulsion, with the addition of 0.5% of an additive, at an application rate of 600 litres of water per hectare (converted). The test plants were placed in the greenhouse for ca. 3 weeks under optimum growth conditions, and then the effect of the preparations is assessed visually in comparison with untreated controls (herbicidal effect in percent (%): 100% effect=plants have died, 0% effect=as control plants). […]

Poa annua [2] = assay: Herbicidal pre-emergence action, POAAN; settings: visual grading after ca. 3 weeks vs untreated controls
Text: as §1, with “plants). Seeds of mono- and dicotyledonous weed plants were sown in plastic pots (double sowings with one species of mono- and one species of dicotyledonous weed plants per pot), in sandy loam, and covered with soil. The compounds according to the invention, formulated in the form of wettable powders (WP) or as emulsifiable concentrates (EC), were applied to the surface of the covering soil as an aqueous suspension or as an emulsion, with the addition of 0.5% of an additive, at an application rate of 600 litres of water per hectare (converted). Following treatment, the pots were placed in a greenhouse and kept under optimum growth conditions for the test plants. The visual grading of the damage to the test plants is carried out after ca. 3 weeks in comparison to untreated controls (herbicidal effect in percent (%): 100% effect=plants have died, 0% effect=as control plants).” for “plants).”

Stellaria media [3] = assay: Herbicidal pre-emergence action, STEME; settings: visual grading after ca. 3 weeks vs untreated controls
Text: as §1, with “plants). Seeds of mono- and dicotyledonous weed plants were sown in plastic pots (double sowings with one species of mono- and one species of dicotyledonous weed plants per pot), in sandy loam, and covered with soil. The compounds according to the invention, formulated in the form of wettable powders (WP) or as emulsifiable concentrates (EC), were applied to the surface of the covering soil as an aqueous suspension or as an emulsion, with the addition of 0.5% of an additive, at an application rate of 600 litres of water per hectare (converted). Following treatment, the pots were placed in a greenhouse and kept under optimum growth conditions for the test plants. The visual grading of the damage to the test plants is carried out after ca. 3 weeks in comparison to untreated controls (herbicidal effect in percent (%): 100% effect=plants have died, 0% effect=as control plants).” for “plants).”

Matricaria inodora [4] = assay: Herbicidal pre-emergence action, MATIN; settings: visual grading after ca. 3 weeks vs untreated controls
Text: as §1, with “plants). Seeds of mono- and dicotyledonous weed plants were sown in plastic pots (double sowings with one species of mono- and one species of dicotyledonous weed plants per pot), in sandy loam, and covered with soil. The compounds according to the invention, formulated in the form of wettable powders (WP) or as emulsifiable concentrates (EC), were applied to the surface of the covering soil as an aqueous suspension or as an emulsion, with the addition of 0.5% of an additive, at an application rate of 600 litres of water per hectare (converted). Following treatment, the pots were placed in a greenhouse and kept under optimum growth conditions for the test plants. The visual grading of the damage to the test plants is carried out after ca. 3 weeks in comparison to untreated controls (herbicidal effect in percent (%): 100% effect=plants have died, 0% effect=as control plants).” for “plants).”

Matricaria inodora [5] = assay: Herbicidal post-emergence action, MATIN; settings: assessed visually after ca. 3 weeks vs untreated controls
Text: as §2

Amaranthus retroflexus [6] = assay: Herbicidal pre-emergence action, AMARE; settings: visual grading after ca. 3 weeks vs untreated controls
Text: as §1, with “plants). Seeds of mono- and dicotyledonous weed plants were sown in plastic pots (double sowings with one species of mono- and one species of dicotyledonous weed plants per pot), in sandy loam, and covered with soil. The compounds according to the invention, formulated in the form of wettable powders (WP) or as emulsifiable concentrates (EC), were applied to the surface of the covering soil as an aqueous suspension or as an emulsion, with the addition of 0.5% of an additive, at an application rate of 600 litres of water per hectare (converted). Following treatment, the pots were placed in a greenhouse and kept under optimum growth conditions for the test plants. The visual grading of the damage to the test plants is carried out after ca. 3 weeks in comparison to untreated controls (herbicidal effect in percent (%): 100% effect=plants have died, 0% effect=as control plants).” for “plants).”

Stellaria media [7] = assay: Herbicidal post-emergence action, STEME; settings: assessed visually after ca. 3 weeks vs untreated controls
Text: as §2

Lolium rigidum [8] = assay: Herbicidal pre-emergence action, LOLRI; settings: visual grading after ca. 3 weeks vs untreated controls
Text: as §1, with “plants). Seeds of mono- and dicotyledonous weed plants were sown in plastic pots (double sowings with one species of mono- and one species of dicotyledonous weed plants per pot), in sandy loam, and covered with soil. The compounds according to the invention, formulated in the form of wettable powders (WP) or as emulsifiable concentrates (EC), were applied to the surface of the covering soil as an aqueous suspension or as an emulsion, with the addition of 0.5% of an additive, at an application rate of 600 litres of water per hectare (converted). Following treatment, the pots were placed in a greenhouse and kept under optimum growth conditions for the test plants. The visual grading of the damage to the test plants is carried out after ca. 3 weeks in comparison to untreated controls (herbicidal effect in percent (%): 100% effect=plants have died, 0% effect=as control plants).” for “plants).”

Amaranthus retroflexus [9] = assay: Herbicidal post-emergence action, AMARE; settings: assessed visually after ca. 3 weeks vs untreated controls
Text: as §2

Lolium rigidum [10] = assay: Herbicidal post-emergence action, LOLRI; settings: 1280 g/ha, assessed visually after ca. 3 weeks vs untreated controls
Text: as §2

Veronica persica [11] = assay: Herbicidal pre-emergence action, VERPE; settings: 1280 g/ha, visual grading after ca. 3 weeks vs untreated controls
Text: as §1, with “plants). Seeds of mono- and dicotyledonous weed plants were sown in plastic pots (double sowings with one species of mono- and one species of dicotyledonous weed plants per pot), in sandy loam, and covered with soil. The compounds according to the invention, formulated in the form of wettable powders (WP) or as emulsifiable concentrates (EC), were applied to the surface of the covering soil as an aqueous suspension or as an emulsion, with the addition of 0.5% of an additive, at an application rate of 600 litres of water per hectare (converted). Following treatment, the pots were placed in a greenhouse and kept under optimum growth conditions for the test plants. The visual grading of the damage to the test plants is carried out after ca. 3 weeks in comparison to untreated controls (herbicidal effect in percent (%): 100% effect=plants have died, 0% effect=as control plants).” for “plants).”

Veronica persica [12] = assay: Herbicidal post-emergence action, VERPE; settings: assessed visually after ca. 3 weeks vs untreated controls
Text: as §2

Alopecurus myosuroides = assay: Herbicidal post-emergence action, ALOMY; settings: 1280 g/ha, assessed visually after ca. 3 weeks vs untreated controls
Text: as §2

Kochia scoparia = assay: Herbicidal post-emergence action, KCHSC; settings: assessed visually after ca. 3 weeks vs untreated controls
Text: as §2

Abutilon theophrasti = assay: Herbicidal post-emergence action, ABUTH; settings: assessed visually after ca. 3 weeks vs untreated controls
Text: as §2

SMILES	herbicidal effect POAAN (Poa annua [2]; 1280 g/ha) [%]	herbicidal effect STEME (Stellaria media [3]; 320 g/ha) [%]	herbicidal effect STEME (Stellaria media [3]; 1280 g/ha) [%]	herbicidal effect MATIN (Matricaria inodora [4]; 1280 g/ha) [%]	herbicidal effect MATIN (Matricaria inodora [5]; 1280 g/ha) [%]	herbicidal effect AMARE (Amaranthus retroflexus [6]; 1280 g/ha) [%]	herbicidal effect STEME (Stellaria media [7]; 1280 g/ha) [%]	herbicidal effect LOLRI (Lolium rigidum [8]; 1280 g/ha) [%]	herbicidal effect AMARE (Amaranthus retroflexus [9]; 1280 g/ha) [%]	herbicidal effect VERPE (Veronica persica [12]; 1280 g/ha) [%]	herbicidal effect AMARE (Amaranthus retroflexus [9]; 320 g/ha) [%]	herbicidal effect KCHSC (Kochia scoparia; 1280 g/ha) [%]	further results
O=C(Nc1ncns1)c1cnccc1C(F)(F)F [Example I-001]	100	100	100	100	100	100	100	100	90	–	–	–	herbicidal effect SETVI (Setaria viridis): 90%; herbicidal effect POAAN (Poa annua [1]; 320 g/ha): 100%; herbicidal effect POAAN (Poa annua [1]; 1280 g/ha): 100%; herbicidal effect POAAN (Poa annua [2]; 320 g/ha): 100%; herbicidal effect MATIN (Matricaria inodora [5]; 320 g/ha): 90%; herbicidal effect AMARE (Amaranthus retroflexus [6]; 320 g/ha): 100%; herbicidal effect STEME (Stellaria media [7]; 320 g/ha): 100%; herbicidal effect LOLRI (Lolium rigidum [10]): 90%
Cc1ccnc(Cl)c1C(=O)Nc1ncns1 [Example I-003]	100	–	100	100	–	100	90	–	90	100	90	–	herbicidal effect VERPE (Veronica persica [11]): 90%; herbicidal effect VERPE (Veronica persica [12]; 320 g/ha): 90%
CCc1ccnc(Cl)c1C(=O)Nc1ncns1 [Example I-004]	90	–	100	90	–	90	–	100	100	100	–	–	herbicidal effect POAAN (Poa annua [1]; 1280 g/ha): 100%
Cc1nsc(NC(=O)c2c(C(F)(F)F)ccnc2F)n1 [Example I-008]	–	–	90	–	–	90	100	–	100	90	–	–	herbicidal effect ALOMY (Alopecurus myosuroides): 90%; herbicidal effect STEME (Stellaria media [7]; 320 g/ha): 90%
COc1nccc(C(F)(F)F)c1C(=O)Nc1ncns1 [Example I-010]	100	–	90	100	–	–	–	100	100	100	100	100	herbicidal effect POAAN (Poa annua [1]; 320 g/ha): 90%; herbicidal effect POAAN (Poa annua [1]; 1280 g/ha): 90%; herbicidal effect VERPE (Veronica persica [12]; 320 g/ha): 100%
Cc1ccncc1C(=O)Nc1ncns1 [Example I-011]	100	90	90	90	–	100	–	–	–	–	–	–	herbicidal effect POAAN (Poa annua [2]; 320 g/ha): 90%
O=C(Nc1nc(C(F)(F)F)ns1)c1cnccc1C(F)(F)F [Example I-013]	–	–	–	–	100	100	100	–	100	100	90	100	herbicidal effect MATIN (Matricaria inodora [5]; 320 g/ha): 100%; herbicidal effect VERPE (Veronica persica [12]; 320 g/ha): 100%; herbicidal effect ABUTH (Abutilon theophrasti; 1280 g/ha): 100%
O=C(Nc1nc(Br)ns1)c1cnccc1C(F)(F)F [Example I-014]	–	–	–	–	100	–	100	–	100	100	–	90	herbicidal effect STEME (Stellaria media [7]; 320 g/ha): 90%
Cc1cc(Cl)nc(Cl)c1C(=O)Nc1ncns1 [Example I-020, 2,6-dichloro-4-methyl-N-(1,2,4-thiadiazol-5-yl)pyridine-3-carboxamide]	–	90	100	90	90	90	90	–	90	100	–	–	–
O=C(Nc1ncns1)c1c(C(F)(F)F)ccnc1Cl [Example I-021]	100	90	100	100	100	100	100	100	100	100	100	100	herbicidal effect POAAN (Poa annua [1]; 1280 g/ha): 100%; herbicidal effect VERPE (Veronica persica [11]): 90%; herbicidal effect POAAN (Poa annua [2]; 320 g/ha): 90%; herbicidal effect KCHSC (Kochia scoparia; 320 g/ha): 90%; herbicidal effect MATIN (Matricaria inodora [4]; 320 g/ha): 90%; herbicidal effect MATIN (Matricaria inodora [5]; 320 g/ha): 100%; herbicidal effect VERPE (Veronica persica [12]; 320 g/ha): 100%; herbicidal effect STEME (Stellaria media [7]; 320 g/ha): 90%; herbicidal effect ABUTH (Abutilon theophrasti; 320 g/ha): 90%; herbicidal effect ABUTH (Abutilon theophrasti; 1280 g/ha): 100%; herbicidal effect LOLRI (Lolium rigidum [8]; 320 g/ha): 90%; herbicidal effect LOLRI (Lolium rigidum [10]): 90%
Cc1ccnc(Br)c1C(=O)Nc1ncns1 [Example I-022, 2-bromo-4-methyl-N-(1,2,4-thiadiazol-5-yl)pyridine-3-carboxamide]	–	–	100	–	–	–	90	–	90	–	–	–	–
Cc1cc(F)ncc1C(=O)Nc1ncns1 [Example I-023]	100	–	90	100	–	90	–	–	90	–	–	–	–
O=C(Nc1ncns1)c1cnc(Cl)cc1C(F)(F)F [Example I-024]	–	–	–	90	100	–	–	–	90	90	–	–	herbicidal effect MATIN (Matricaria inodora [5]; 320 g/ha): 90%
CC(C)c1ccnc(Cl)c1C(=O)Nc1ncns1 [Example I-026, 2-chloro-4-isopropyl-N-(1,2,4-thiadiazol-5-yl)pyridine-3-carboxamide]	–	90	100	100	–	100	100	100	100	90	90	90	–
COc1nccc(C(C)C)c1C(=O)Nc1ncns1 [Example I-027]	–	–	90	–	–	–	–	–	–	–	–	–	–
